Experimental data published in patent US5621007A, “Method for regulation of transmembrane chloride conductance” (Bristol-Myers Squibb Company, priority 1995, dated 1997).
“Also recorded” adds a separate entry of the source. Like-named read-outs stand apart in the source and are kept apart here.

Key:
[1] = biological target: T1, wild-type CFTR (Homo sapiens, UniProt P13569); test: Two-electrode voltage clamp, Xenopus oocytes expressing wild-type CFTR; type: cell-based
[2] = system: ΔF508 CFTR; test: Two-electrode voltage clamp, Xenopus oocytes expressing ΔF508 CFTR; type: cell-based
[3] = system: uninjected or H2 O-injected oocytes; test: Two-electrode voltage clamp, uninjected or H2O-injected oocytes (control); type: cell-based, Xenopus laevis; details: NS004, uninjected or H2O-injected oocytes
Procedure: Oocytes were surgically removed from Xenopus laevis anesthetized with 0.12% 3-aminobenzoic acid ethyl ester (Tricaine). Oocytes were first rinsed with Ca^2+ -free OR2 medium (82.5 mM NaCl, 1 mM KCl, 1 mM MgCl2, 5 mM HEPES, pH 7.5 with NaOH) followed by incubation in collagenase (1.5 mg/ml prepared in Ca^2+ -free OR2 medium) for 4 hours at room temperature. After enzyme treatment, cells were rinsed 8× with OR2 medium and then rinsed again 8× with ND96 medium (90 mM NaCl, 1 mM KCl, 1 mM CaCl2, 1 mM MgCl2, 5 mM HEPES, pH 7.5 with NaOH). Oocytes were stored overnight at 17° C. Late stage V and early stage VI cells that were visualized to be fully defolliculated to the vitelline envelope were selected for microinjection.
Electrophysiological evaluation of the effects of putative CFTR openers were assessed in oocytes expressing wild-type and ΔF508 CFTR constructs using standard two-electrode voltage clamp techniques. Generally, a family of currents was generated under control conditions (incubated in Modified Barth's Solution, MBS, a typical physiological saline medium, in the absence of drugs), with no current or small currents generated under drug-free conditions. […] Data were collected and analyzed using a computer equipped with an A/D interface and appropriate acquisition and analysis software.

[4] = biological target: T1, wild-type CFTR; test: 125I efflux from Vero cells expressing wild-type CFTR; type: cell-based
[5] = system: ΔF508 CFTR; test: 125I efflux from Vero cells expressing ΔF508 CFTR; type: cell-based
[6] = biological target: T1, wild-type CFTR; test: Whole-cell patch clamp, Vero cells expressing wild-type CFTR; type: cell-based
[7] = system: ΔF508 CFTR; test: Whole-cell patch clamp, Vero cells expressing ΔF508 CFTR; type: cell-based
[8] = system: mock transfected cells; test: Whole-cell patch clamp, mock transfected Vero cells; type: cell-based, monkey
[9] = system: wild-type CFTR Cl- channels; test: Outside-out single channel patch clamp, Vero cells expressing wild-type CFTR; type: cell-based; details: sub-micromolar to micromolar NS004, outside-out excised patches
[10] = system: ΔF508 mutant CFTR Cl- channels; type: cell-based
[11] = system: Control cells (not expressing CFTR constructs); test: Outside-out patch clamp, control Vero cells not expressing CFTR constructs; type: cell-based, monkey
Procedure: Subsequently, various concentrations of NS004 were tested for direct effects on ^125 I efflux in cells expressing wild-type and ΔF508 CFTR constructs, the ability of NS004 to affect the anion efflux stimulated by cAMP (produced by application of Forskolin) was also tested. In addition, both whole-cell and single-channel (outside-out) patch clamp configurations were employed to directly determine the effects of cAMP (produced by addition of Forskolin), NS004, and the combination of cAMP and NS004 on whole-cell and single channel Cl^- currents in infected Vero cells under nominally sodium and potassium-free conditions. In all cases data were collected and analyzed by computer.

[12] = system: mock transfected cells
[13] = system: chloride channels; details: cited from earlier work
[14] = NS004 alone at the flux-experiment concentrations, Vero cells

T1 sequence (P13569 whole entry): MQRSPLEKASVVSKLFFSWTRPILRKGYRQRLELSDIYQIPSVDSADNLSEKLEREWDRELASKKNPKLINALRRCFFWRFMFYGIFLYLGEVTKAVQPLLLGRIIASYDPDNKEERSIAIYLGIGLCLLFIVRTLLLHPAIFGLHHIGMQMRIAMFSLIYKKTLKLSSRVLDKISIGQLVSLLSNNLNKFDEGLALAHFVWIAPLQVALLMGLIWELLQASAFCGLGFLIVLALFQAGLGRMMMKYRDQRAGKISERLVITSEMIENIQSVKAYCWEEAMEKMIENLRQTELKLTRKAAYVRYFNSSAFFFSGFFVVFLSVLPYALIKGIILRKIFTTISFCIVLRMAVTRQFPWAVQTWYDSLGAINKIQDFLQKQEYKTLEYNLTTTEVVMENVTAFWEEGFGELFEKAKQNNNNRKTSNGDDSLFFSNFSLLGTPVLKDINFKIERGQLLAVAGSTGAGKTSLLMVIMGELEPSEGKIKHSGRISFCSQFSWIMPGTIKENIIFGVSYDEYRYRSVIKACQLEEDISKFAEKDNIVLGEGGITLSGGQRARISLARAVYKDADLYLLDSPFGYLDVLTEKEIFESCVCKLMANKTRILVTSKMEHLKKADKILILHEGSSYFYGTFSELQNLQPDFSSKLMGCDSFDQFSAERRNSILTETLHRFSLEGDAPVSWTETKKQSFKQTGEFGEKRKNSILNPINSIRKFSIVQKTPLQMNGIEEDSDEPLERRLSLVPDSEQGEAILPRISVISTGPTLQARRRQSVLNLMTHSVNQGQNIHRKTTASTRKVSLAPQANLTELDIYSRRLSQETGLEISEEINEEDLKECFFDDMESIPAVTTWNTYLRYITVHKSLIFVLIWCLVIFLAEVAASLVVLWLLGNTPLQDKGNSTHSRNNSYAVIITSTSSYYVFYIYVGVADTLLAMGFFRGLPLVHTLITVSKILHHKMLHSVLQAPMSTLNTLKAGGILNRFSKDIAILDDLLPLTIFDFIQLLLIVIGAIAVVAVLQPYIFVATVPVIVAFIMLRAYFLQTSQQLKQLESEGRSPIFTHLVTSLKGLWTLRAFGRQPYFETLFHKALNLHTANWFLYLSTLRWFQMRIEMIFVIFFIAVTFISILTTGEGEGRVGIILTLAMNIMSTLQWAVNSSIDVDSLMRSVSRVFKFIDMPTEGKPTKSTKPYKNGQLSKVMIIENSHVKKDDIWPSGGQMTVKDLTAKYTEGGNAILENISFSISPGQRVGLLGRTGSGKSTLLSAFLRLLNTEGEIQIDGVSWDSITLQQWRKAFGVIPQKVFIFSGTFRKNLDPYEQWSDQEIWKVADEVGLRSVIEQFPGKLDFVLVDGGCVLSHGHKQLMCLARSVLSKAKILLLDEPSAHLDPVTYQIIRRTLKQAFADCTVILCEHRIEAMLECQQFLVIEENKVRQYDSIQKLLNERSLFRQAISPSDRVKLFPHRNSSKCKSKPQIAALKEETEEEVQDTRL

SMILES: O=c1[nH]c2cc(C(F)(F)F)ccc2n1-c1cc(Cl)ccc1O [NS004, 5-trifluoromethyl-1-(5-chloro-2-hydroxyphenyl)-1,3-dihydro-2H-benzimidazol-2-one]
- chloride current of the cAMP-stimulated channel ([1]; NS004 added to cAMP-stimulated wild-type CFTR, oocytes): only a marginal enhancement of chloride current; also recorded: only a small potentiation of cAMP-stimulated current
- reversibility of the increase in Cl- current ([1]; NS004 alone, Xenopus oocytes, wild-type CFTR): rapidly reversible; also recorded: reversibly open
- Cl- current ([1]; NS004 applied alone, unstimulated wild-type CFTR, Xenopus oocytes): large increase in Cl^- current; also recorded: great efficacy; also recorded: significant increase in the Cl^- current
- potency (concentration range) for opening unstimulated wild-type CFTR ([1]; Xenopus oocytes): sub-micromolar to micromolar
- chloride current ([2]; NS004 applied alone, oocytes expressing ΔF508 CFTR): only a small enhancement of chloride current; also recorded: smaller direct increase in whole cell Cl^- current
- level of cAMP stimulation of channel activity (Cl- current) ([2]; NS004 simultaneously applied with cAMP and related agents, oocytes expressing ΔF508): greatly exacerbated the level of cAMP stimulation of channel activity; also recorded: profound potentiation of cAMP stimulation of Cl^- current
- time course of cAMP-stimulated chloride current increase ([2]; both cAMP and NS004 present, oocytes expressing ΔF508): greatly reduced (response time enhanced)
- increase in Cl- current [3]: never seen
- 125I efflux relative to control ([4]; NS004 20 μM alone, Vero cells expressing CFTR (FIG. 2)): increased relative to control
- 125I-flux over control values ([4]; NS004 alone, 0.1-20 micromolar concentration range, Vero cells, wild-type CFTR): increased modestly over control values; also recorded: only modest direct increases in ^125 I efflux
- total anion flux ([4]; both cAMP and NS004, Vero cells, wild-type CFTR): did not significantly increase total anion flux
- time course of the increase in anion flux produced by cAMP ([5]; cAMP plus NS004, Vero cells, ΔF508 CFTR): reduced the slow time course
- levels of 125I efflux attained ([5]; co-administration of cAMP and NS004, ΔF508 CFTR, compared with cAMP in wild-type CFTR cells): comparable to the efflux stimulated by cAMP in cells expressing wild-type CFTR
- amplitude of the increase in 125I efflux produced by cAMP ([5]; coapplication of cAMP (Forskolin, 5 μM in FIG. 2) and NS004, Vero cells, ΔF508 CFTR): greatly potentiated; also recorded: greatly enhanced the amplitude; also recorded: robust potentiation of ^125 I efflux
- 125I-flux ([5]; direct application of NS004 alone, Vero cells, ΔF508 CFTR): only marginally effected; also recorded: only modest direct increases in ^125 I efflux
- whole cell inward and outward Cl- current [6, 14]: large to moderate increases; also recorded: significant increase in the Cl^- current
- whole cell Cl- current relative to cAMP alone ([6]; combination of cAMP stimulation and NS004, Vero cells): only marginal increases in current; also recorded: only a small potentiation of cAMP-stimulated current
- whole cell inward and outward Cl- current [7, 14]: large to moderate increases; also recorded: smaller direct increase in whole cell Cl^- current
- maximal stimulation of Cl- current by cAMP ([7]; cAMP plus NS004, Vero cells): potently potentiated the maximal stimulation of Cl^- current by cAMP; also recorded: profound potentiation of cAMP stimulation of Cl^- current
- response time to peak of cAMP-stimulated Cl- current ([7]; cAMP plus NS004, Vero cells): greatly enhanced the response time to peak
- effect on whole cell Cl- current [8]: no effects
- opening / open probability of single Cl- channels [9]: potently and directly opened Cl^- channels; also recorded: greatly increased the open probability
- opening / open probability of single Cl- channels [10]: rapid and reversible direct increase in the opening of these channels; also recorded: potently and directly opened Cl^- channels; also recorded: greatly increased the open probability
- channel response to drug application [11]: did not respond to drug application
- response on 125I efflux [12]: no response

SMILES: C1CCN2C[C@@H]3C[C@@H](CN4CCCC[C@@H]34)[C@H]2C1 [sparteine, dodecahydro-7,14-methano-2H,6H-di-pyrido[1,2-a;1',2'-e][1,5]diazocine]
- effect on chloride channels ([13]; higher doses): blocking chloride channels
- effect on chloride channels ([13]; low doses): activating chloride channels
